Assay results taken from US10307418B2, “Azole pharmaceutical formulations for parenteral administration and methods for preparing and using the same as treatment of diseases sensitive to azole compounds” (Platform Brightworks Two, Ltd., priority 2010, dated 2019).
In brackets after ≈: the same amount, converted by molar mass. Like-named read-outs stand apart in the source and are kept apart here.

Key:
[1] = system: Candida cruzei (ATCC strain 6258); test: Yeast susceptibility test, MIC (CLSI standard); type: cell-based; details: tested range 38 μg/mL to 0.03 μg/mL, read out at 24 hours, average of three experiments
Method: (§1) Briefly, susceptibility tests were set-up using a standardized methodology (CLSI […] standard). Drugs were diluted into RPMI-Mops medium (Yeast One Broth (Sensititer, product Y3462, Trek Diagnostic Systems, Cleveland, Ohio) Sensititer Lot number 151416SA-expiration date 2011-01). Two different strains of yeast were tested, the standardized evaluation/read out was performed at 24 hours after the start of each culture. The tests were repeated twice and all MIC (minimum inhibitory concentration) values are reported as an average of the three experiments.

Candida parapsilosis = test: Yeast susceptibility test, MIC (CLSI standard); type: cell-based; details: tested range 38 μg/mL to 0.03 μg/mL, read out at 24 hours, average of three experiments
Method: as §1

[2] = system: Aspergillus fumigatus (ATCC strain 90906); test: Mold susceptibility test, MIC (CLSI M38A); type: cell-based
Method: Two hyaline molds were tested with a standard read out at 48 hrs:
Tested drug range: 75 μg/mL to 0.07 μg/mL
(§2) To further determine the antifungal activity of the compounds in the new formulation systems we investigated the efficacy of the various agents against additional strains of mucor and Aspergillus (9/-16-9/20/2010) (The Rhizomucor was a clinical isolate from a patient isolate) and the Aspergillus fumigatus (ATCC strain 90906) used was a repeat from the previously described experiment. Again, the susceptibility tests were set-up using the standardized test method (CLSI M38A). The used drugs were provided in the described H3 final use-formulation that has been previously described. All drugs were diluted in RPMI-Mops medium (YeastOne, Sensititer Lot 151416SA, expiration date January 2011).
As before two different molds were tested with a standard read out at 48 hr: • Drug dilution range 75 μg/mL to 0.07 μg/mL. • Aspergillus fumigatus (ATCC strain 90906) Zygomycete (Clinical Lab isolate, MDACC) […]

[3] = system: Zygomycete (Clinical Lab isolate, MDACC); test: Extended mold testing, MIC (CLSI M38A); type: cell-based; details: H3 final use-formulation, range 75 μg/mL to 0.07 μg/mL, 48 hr, read-out: MIC
Description: as §2
As before two different molds were tested with a standard read out at 48 hr: • Drug dilution range 75 μg/mL to 0.07 μg/mL. • Aspergillus fumigatus (ATCC strain 90906) Zygomycete (Clinical Lab isolate, MDACC)

[4] = mouse, in vivo, 5 mg/kg
Method: (§3) Swiss Webster mice were used for pharmacokinetic studies of ITZA and its analogs. The dilation of the vein was accomplished by warming up the mice using a heat lamp. […] Mice were allowed to recover and blood samples were obtained through cardiac puncture under general anesthesia with Isoflurane/oxygen by vaporizer at various time points. Plasma was obtained by centrifugation of blood sample at 3,200 rpm for 5 min. at 4° C. Plasma proteins were precipitated by adding acetonitrile (twice the volume of plasma). The mixture was vortexed for 30 seconds and centrifuged for 5 min. at 14,000 rpm. The supernatant was saved and was injected into the HPLC to determine the respective drug concentrations.
(§4) Unless specified, the analogous experiments were performed using POSA as an alternative to ITZA; Swiss Webster mice of both sexes with a body weight of 25-30 g were used for the in vivo pharmacology experiments (Harlan-Sprague-Dawley, Houston, Tex.). The animals were allowed a minimum of 7 days after arrival to accommodate to the new environment and allowed free access to commercial feed and tap water prior to and during the experimentation period. The animals were housed in an Association for the Assessment and Accreditation of Laboratory Animal Care International (AAALAC)-approved facility that meets the requirements of the USDA, NIH, and DHHS.
(§5) The ITZA dose of 5 mg/kg BW was determined to be a suitable test dose that could be administered to the mice as a slow (3-4 min) IV bolus injection without requiring sedation, but could be performed with only minimal physical restraint of the animals in a standard funnel-type cage.
(§6) The ITZA was formulated in the H3 solvent system described above as the preferred solvent to a stock concentration of 4-5 mg/mL and then diluted with NS (ratio 1:1) so the intended dose (5.0 mg/kg BW) could be injected in a tail vein in a total volume of approximately 100 μL. […] No sedative premedication was used for the mice in this experiment to avoid the possible induction of microsomal liver enzymes that could modify ITZA metabolism. Thus, the animals were unanesthetized, being only physically restrained during and immediately following the drug injection.
(§7) Blood samples (0.5-1.0 mL) were drawn through cardiac puncture into heparinized tubes at selected time points prior to the drug infusion (“blank”), and from 5 min to 1 hour after drug injection for determination of ITZA concentrations, and for 5 min to about 7 hrs in the POSA experiment. The mice were exposed to 2% -4% isoflurane for general anesthesia. Blood samples were obtained through cardiac puncture and immediately deposited in heparinized microcentrifuge tubes.

[5] = Stability of ITZA/POSA in solvent vehicles (HPLC); type: physicochemical
[6] = cited from earlier work
in vivo = details: both, Swiss Webster, mouse, plasma, iv, 5 mg/kg
Method: as §3, §4, §5, §6, §7

[7] = Plasma pharmacology after IV injection in mice; details: IV dose of 5 mg/kg
Method: as §3, §4, §5, §6, §7

CCC(C)n1ncn(-c2ccc(N3CCN(c4ccc(OCC5COC(Cn6cncn6)(c6ccc(Cl)cc6Cl)O5)cc4)CC3)cc2)c1=O (stereo not shown) [ITZA, itraconazole]
MIC [1]: 0.07 µg/mL (≈ 0.0992 µM)
MIC ([1]; listed as ITZA*): 0.15 µg/mL (≈ 0.213 µM)
MIC (Candida parapsilosis): 0.03 µg/mL (≈ 0.0425 µM)
MIC (Candida parapsilosis; listed as ITZA*): 0.07 µg/mL (≈ 0.0992 µM)
MIC ([2]; Aspergillus fumigatus, ATCC90906, 48 h, tested range 75 μg/mL to 0.07 μg/mL, read out at 48 hrs, first experiment, read-out: MIC): 1.2 µg/mL (≈ 1.7 µM)
MIC ([2]; extended mold testing (repeat), H3 final use-formulation, range 75 μg/mL to 0.07 μg/mL, 48 hr): 1.2 µg/mL (≈ 1.7 µM)
MIC ([2]; extended mold testing (repeat), H3 final use-formulation, range 75 μg/mL to 0.07 μg/mL, 48 hr, listed as ITZA*): 0.3 µg/mL (≈ 0.425 µM)
MIC ([2]; tested range 75 μg/mL to 0.07 μg/mL, read out at 48 hrs, first experiment): 0.6 µg/mL (≈ 0.85 µM)
MIC [3]: 2.5 µg/mL (≈ 3.54 µM)
tolerability of IV injection (in words) [4]: well accepted
Stability (% remaining) ([5]; 2-6 mg/mL in composite (prototype) solvent vehicles, more than three days or 72 hours at RT): more than 90%
Stability (%) ([5]; H3D, 4 mg/mL, 0 hr): 100%
Stability (%) ([5]; H3D, 4 mg/mL, 2 hr): 102%
Stability (%) ([5]; H3D, 4 mg/mL, 4 hr): 101%
Stability (%) ([5]; H3D, 4 mg/mL, 8 hr): 99%
Stability (%) ([5]; H3D, 4 mg/mL, 24 hr): 97%
stability of ITZA ([5]; H3D, day 0): 100%
stability of ITZA ([5]; H3D, day 1): 94%
stability of ITZA ([5]; H3D, day 2): 95%
stability of ITZA ([5]; H3D, day 3): 93%
stability of ITZA ([5]; H3D, day 4): 94%
stability of ITZA ([5]; H3D, day 5): 98%
stability of ITZA ([5]; H3D/5% dex., day 0): 100%
stability of ITZA ([5]; H3D/5% dex., day 1): 100%
stability of ITZA ([5]; H3D/5% dex., day 2): 103%
stability of ITZA ([5]; H3D/5% dex., day 4): 99%
stability of ITZA ([5]; H3D/5% dex., day 5): 93%
stability of ITZA ([5]; H3D/10% Dex., day 0): 100%
stability of ITZA ([5]; H3D/10% Dex., day 1): 98%
stability of ITZA ([5]; H3D/10% Dex., day 2): 98%
stability of ITZA ([5]; H3D/10% Dex., day 3): 102%
stability of ITZA ([5]; H3D/10% Dex., day 4): 99%
stability of ITZA ([5]; H3D/10% Dex., day 5): 105%
stability of ITZA ([5]; H3D/sal., day 0): 100%
stability of ITZA ([5]; H3D/sal., day 1): 107%
stability of ITZA ([5]; H3D/sal., day 2): 107%
stability of ITZA ([5]; H3D/sal., day 3): 110%
stability of ITZA ([5]; H3D/sal., day 5): 90%
stability of ITZA ([5]; H3G, day 0): 100%
stability of ITZA ([5]; H3G, day 1): 103%
stability of ITZA ([5]; H3G, day 2): 100%
stability of ITZA ([5]; H3G, day 3): 89%
stability of ITZA ([5]; H3G, day 4): 103%
stability of ITZA ([5]; H3G, day 5): 106%
stability of ITZA ([5]; H3G/5% Dex., day 0): 100%
stability of ITZA ([5]; H3G/5% Dex., day 1): 102%
stability of ITZA ([5]; H3G/5% Dex., day 2): 109%
stability of ITZA ([5]; H3G/5% Dex., day 3): 94%
stability of ITZA ([5]; H3G/5% Dex., day 4): 99%
stability of ITZA ([5]; H3G/5% Dex., day 5): 42%
stability of ITZA ([5]; H3G/10% dex., day 0): 100%
stability of ITZA ([5]; H3G/10% dex., day 2): 102%
stability of ITZA ([5]; H3G/10% dex., day 3): 98%
stability of ITZA ([5]; H3G/10% dex., day 4): 107%
stability of ITZA ([5]; H3G/10% dex., day 5): 31%
stability of ITZA ([5]; H3G/sal., day 0): 100%
stability of ITZA ([5]; H3G/sal., day 1): 95%
stability of ITZA ([5]; H3G/sal., day 2): 94%
stability of ITZA ([5]; H3G/sal., day 3): 80%
stability of ITZA ([5]; H3G/sal., day 4): 70%
stability of ITZA ([5]; H3G/sal., day 5): 38%
Stability (%) ([5]; Solvent H3G, 0 hr): 100%
Stability (%) ([5]; Solvent H3G, 2 hr): 108%
Stability (%) ([5]; Solvent H3G, 4 hr): 104%
Stability (%) ([5]; Solvent H3G, 6 hr): 101%
Stability (%) ([5]; Solvent H3G, 8 hr): 98%
Stability (%) ([5]; Solvent H3G, 24 hr): 103%
Stability (%) ([5]; parent solvent H3, approximately 4 mg/mL, room temperature, 14 (2 w)): 83%
Stability (%) ([5]; parent solvent H3, approximately 4 mg/mL, room temperature, 21 (3 w)): 79%
Stability (%) ([5]; parent solvent H3, approximately 4 mg/mL, room temperature, 28 (4 w)): 75%
Stability (%) ([5]; parent solvent H3, approximately 4 mg/mL, room temperature, 35 (5 w)): 77%
Stability (%) ([5]; parent solvent H3, approximately 4 mg/mL, room temperature, 49 (7 w)): 79%
Stability (%) ([5]; parent solvent H3, approximately 4 mg/mL, room temperature, 63 (9 w)): 75%
Stability (%) ([5]; parent solvent H3, approximately 4 mg/mL, room temperature, 24 hrs): 99%
Stability (%) ([5]; parent solvent H3, approximately 4 mg/mL, room temperature, 72 hrs): 95%
Stability (%) ([5]; parent solvent H3, approximately 4 mg/mL, room temperature, 96 hrs): 88%
Stability (%) ([5]; parent solvent H3, approximately 4 mg/mL, room temperature, 11 days): 77%
Stability (%) ([5]; parent solvent H3, approximately 4 mg/mL, room temperature, time 0): 100%
Stability (%) ([5]; solvent H3, approximately 4 mg/mL, 40° C., 3 hr): 104%
Stability (%) ([5]; solvent H3, approximately 4 mg/mL, 40° C., 6 hr): 98%
Stability (%) ([5]; solvent H3, approximately 4 mg/mL, 40° C., 24 hr): 92%
Stability (%) ([5]; solvent H3, approximately 4 mg/mL, 40° C., 30 hr): 89%
Stability (%) ([5]; solvent H3, approximately 4 mg/mL, 40° C., 48 hr): 84%
Stability (%) ([5]; solvent H3, approximately 4 mg/mL, 40° C., 54 hr): 79%
Stability (%) ([5]; solvent H3, approximately 4 mg/mL, 40° C., 78 hr): 80%
Stability (%) ([5]; solvent H3, approximately 4 mg/mL, 40° C., 4 days): 78%
Stability (%) ([5]; solvent H3, approximately 4 mg/mL, 40° C., 7 days): 70%
Stability (%) ([5]; solvent H3, approximately 4 mg/mL, 40° C., 8 days): 70%
Stability (%) ([5]; solvent H3, approximately 4 mg/mL, 40° C., 9 days): 58%
Stability (%) ([5]; solvent H3, approximately 4 mg/mL, 40° C., 14 days): 56%
Stability (%) ([5]; solvent H3, approximately 4 mg/mL, 40° C., 16 days): 55%
Stability (%) ([5]; solvent H3, approximately 4 mg/mL, 40° C., 18 days): 54%
Stability (%) ([5]; solvent H3, approximately 4 mg/mL, 40° C., 21 days): 45%
Stability (%) ([5]; solvent H3, approximately 4 mg/mL, 40° C., 25 days): 37%
Stability (%) ([5]; solvent H3, approximately 4 mg/mL, 40° C., 28 days): 30%
Stability (%) ([5]; solvent H3, approximately 4 mg/mL, 40° C., 32 days): 24%
Stability (%) ([5]; solvent H3/normal saline (1:1), approximately 2.0 mg/mL, RT, 0 hrs): 100%
Stability (%) ([5]; solvent H3/normal saline (1:1), approximately 2.0 mg/mL, RT, 2 hrs): 97%
Stability (%) ([5]; solvent H3/normal saline (1:1), approximately 2.0 mg/mL, RT, 4 hrs): 97%
Stability (%) ([5]; solvent H3/normal saline (1:1), approximately 2.0 mg/mL, RT, 8 hrs): 102%
Stability (%) ([5]; solvent H3/normal saline (1:1), approximately 2.0 mg/mL, RT, 14 hrs): 109%
Stability (%) ([5]; solvent H3/normal saline (1:1), approximately 2.0 mg/mL, RT, 24 hrs): 93%
known plasma half-life ([6]; literature (Ref 24, 32, 42, 45)): 10 to 11 h
bioavailability ([6]; oral preparations, literature): approximately 50%
half-life (in vivo): ~30 min
time plasma concentrations remain in the fungi-toxic range [7]: in excess of one hour
